Paper PMC9866314 (Viruses, 2022)

How the values were obtained:
in vitro = conditions: hamster
FMDV serotype A (NP05) = test: microbe, parasite or virus in culture; type: cell-based; conditions: Foot-and-mouth disease virus; for EC50: BHK-21, read-out: Antiviral Activity EC50; for EC90: BHK-21, read-out: Antiviral Activity EC90
[1] = test system: RD114 glycoprotein (RD114pp) of endogenous feline retrovirus; conditions: read-out: IC50 against RD114pp; cited from earlier work

Compound	CC50 (in vitro) [µM]	EC50 (FMDV serotype A (NP05)) [µM]	EC90 (FMDV serotype A (NP05)) [µM]	IC50 [1] [µM]
CC1=CC(C)(C)Nc2ccc(Cc3ccc4c(c3)C(C)=CC(C)(C)N4)cc21 [NSC217697, 6,6′-methylene bis(2,2,4-trimethyl-1,2-dihydroquinoline)]	> 100	0.78 ± 0.1	9.52 ± 0.18	–
CO[C@@H]1C[C@@H](C[C@H]2CC[C@H](C)[C@H]([C@@H](C)C(=O)O)O2)O[C@]2(O[C@](C)([C@H]3CC[C@@](C)([C@@H]4O[C@@H]([C@H]5O[C@@](O)(CO)[C@H](C)C[C@@H]5C)C[C@@H]4C)O3)C[C@H]2C)[C@@H]1C [NSC292567, Pandavir/Nigericin]	49.9 ± 1.7	0.42 ± 0.08	3.85 ± 0.34	–
O=C1CCCc2cc3c(cc21)CC1(C3)Cc2cc3c(cc2C1)C(=O)CCC3 [NSC670283, 2,2′-spirobi [3,6,7,8-tetrahydro-1H-cyclopenta[g]naphthalene]-5,5′-dione]	> 100	3.38 ± 1.02	30.45 ± 0.25	3
NC(=O)c1ncn([C@@H]2O[C@H](CO)[C@@H](O)[C@H]2O)n1 [Ribavirin, 1-β-d-ribofuranosyl-1,2,4-triazole-3-carboxamide, reference compound]	> 100	42.89 ± 0.42	393.6 ± 2.56	–
CCOC(=O)/C=C/[C@H](C[C@@H]1CCNC1=O)NC(=O)[C@@H](CC(=O)[C@@H](NC(=O)c1cc(C)on1)C(C)C)Cc1ccc(F)cc1 [Rupintrivir, reference compound]	> 100	2.02 ± 0.3	12.1 ± 1.6	–
